Here are results for 3 compounds from ChEMBL document CHEMBL1122566, “Resorcinol congeners of dopamine derived from benzocycloheptene and indan” (1984).

For experiment [1], the system named is Felis catus. The experiment is described as follows: Effect on rise in arterial pressure in anesthetized cats at intravenous dose of 1000 ug/kg. Type of experiment: functional, Artery.
The subject of experiment [2] is Felis catus. The experiment is described as follows: Effect on increase in heart rate in anesthetized cats at intravenous dose of 100 ug/kg. It is filed as functional.
Experiment [3] has as its system Felis catus. The experiment is described as follows: Effect on rise in arterial pressure in anesthetized cats at intravenous dose of 100 ug/kg. Type of experiment: functional, Artery.
Experiment [4] deals with Felis catus. In words: Effect on increase in heart rate in anesthetized cats at intravenous dose of 300 ug/kg. Type of experiment: functional.
Experiment [5] deals with Felis catus. The experiment is described as follows: Effect on rise in arterial pressure in anesthetized cats at intravenous dose of 30 ug/kg. Type of experiment: functional, Artery.
Experiment [6] concerns Felis catus. In words: Effect on rise in arterial pressure in anesthetized cats at intravenous dose of 300 ug/kg. Type of experiment: functional, Artery.
Experiment [7] concerns Felis catus. The experiment is described as follows: Effect on increase in heart rate in anesthetized cats at intravenous dose of 30 ug/kg. Type of experiment: functional.

In the case of `NC1Cc2cc(O)cc(O)c2C1` (centres undefined), the Arterial pressure in the experiment with Felis catus [1] worked out at 70.3 mmHg; in the experiment with Felis catus [3], 13.3 mmHg. The Heart rate is reported as 0 beats min-1 in the experiment with Felis catus [2] and 7.3 beats min-1 in the experiment with Felis catus [4].
For `CCCN(CCC)C1Cc2cc(O)cc(O)c2C1` (centres undefined), the Arterial pressure with Felis catus [1] is given as 22.8 mmHg; in the experiment on Felis catus [3], 10 mmHg. For the same compound, the results for the Heart rate in the experiment on Felis catus [2] and in the experiment with Felis catus [4] were 0 beats min-1 and 21.7 beats min-1, respectively.
As for `NC1CCCc2c(O)cc(O)cc2C1` (centres undefined), the Arterial pressure in the experiment with Felis catus [5] is listed as 25.3 mmHg; in the experiment with Felis catus [6], 78.7 mmHg; with Felis catus [3] it was 40 mmHg. The Heart rate with Felis catus [7] is listed as 4.3 beats min-1; in the experiment with Felis catus [2], 11.7 beats min-1; in the experiment on Felis catus [4] it was 42 beats min-1.
